One assay addresses T1, hIDO1 (Homo sapiens, UniProt P14902).
T1 construct: expressed in transfected cells; host or cells: HEK293T (293T) cells, transient transfection with Fugene 6
Nature of the assay: IDO inhibition activity based on HEK293T cells transfected with hIDO1 plasmid. Type of assay: cell-based. To be noted: HEK293T cells transfected with hIDO1, 16 hours incubation, OD 480 nm; read-out: IDO inhibitory activity of HEK293T cells (IC50). The procedure:
1. Test Method for IDO Inhibition Activity Based on HEK293T Cells:
The first step: cell transfection and plating. 5×10^6 293T cells were separately seeded in two T75 flasks and incubated overnight at 37° C. in a 5% CO2 incubator. […] of a mixture containing 1.5 μg of hIDO1 plasmid and 300 μL of opti-MEM was made into a mixture A; 18 μL of liposome fugene 6 was mixed with 300 μL of opti-MEM to prepare a mixture B, and allowed to stand at room temperature for 5 minutes. Mixture A and Mix B were mixed, placed at room temperature for 20 minutes, added to a 293T culture flask, and the other flask was used as a control and incubated overnight at 37° C. in a 5% CO2 incubator. The medium was discarded, digested with trypsin, and after digestion, the cells were neutralized with serum-containing medium, and the cells were blown to cause the cells to fall off. Pipette the cell suspension into a centrifuge tube and centrifuge at a speed of 800-1000 for 1-3 minutes. Aspirate the cell supernatant from the centrifuge tube. Add an appropriate volume of medium to the tube and gently blister to resuspend the cells. Count using a Vi-Cell XR cytometer. Adjust the cell suspension to the appropriate concentration. The cell suspension was added to a white-well 96-well plate at 80 μL/well. The second step: preparation and addition of the compound. Compounds were formulated in DMSO at 600 μM and the compounds were diluted in DMSO according to a multiple of the following table to give 6 concentration gradients of the compound. The 200× compound prepared in DMSO was formulated into a 10× dilution solution in proportion to the corresponding cell culture medium. Add 10 μL of 10× corresponding compound dilution and 10 μL of 10×TRP to each well, except for Min. Incubate for 16 hours in a 37° C. incubator. The third step: detection and analysis. Cell morphology was observed under an inverted microscope. 80 μL of the supernatant was added to a 3894 plate, and 10 μL of 6.1 N trichloroacetic acid was added to each well, shaken for 2 minutes, and placed in a 50-degree incubator for 30 minutes. Centrifuged at 2500 rpm for 10 minutes. Take 70 μL of the supernatant and transfer to a 3635 UV plate, add 70 μL of the reaction solution, and shake for 2 minutes to make the reaction uniform. Use EnSpire (PE) to detect data with an OD of 480 nm. The cell culture plate 3903 was allowed to stand at room temperature for 30 minutes. 100 μL/well of the cell activity detecting reagent was added to the culture plate. Mix on a shaker for 2 minutes to induce cell lysis. The 96-well plate was allowed to stand at room temperature for 10 minutes to stabilize the luminescence signal. Paste the white base film on the bottom of the plate and the plate was tested in Flexstation 3 (the relevant setting is: Illumination, integration time 500 ms). Record the experimental results obtained from the analysis.
The IC50 value is expressed by: A: IC50 value≤10 nM; B: 10 nM<IC50 value≤50 nM; C: 50 nM<IC50 value≤100 nM; D: IC50 value>100 nM.

For another assay, the target named is T2, IDO (Homo sapiens, UniProt P14902).
T2 construct: endogenous in cells; host or cells: HeLa cells treated with IFNγ
T2 sequence (P14902 whole entry): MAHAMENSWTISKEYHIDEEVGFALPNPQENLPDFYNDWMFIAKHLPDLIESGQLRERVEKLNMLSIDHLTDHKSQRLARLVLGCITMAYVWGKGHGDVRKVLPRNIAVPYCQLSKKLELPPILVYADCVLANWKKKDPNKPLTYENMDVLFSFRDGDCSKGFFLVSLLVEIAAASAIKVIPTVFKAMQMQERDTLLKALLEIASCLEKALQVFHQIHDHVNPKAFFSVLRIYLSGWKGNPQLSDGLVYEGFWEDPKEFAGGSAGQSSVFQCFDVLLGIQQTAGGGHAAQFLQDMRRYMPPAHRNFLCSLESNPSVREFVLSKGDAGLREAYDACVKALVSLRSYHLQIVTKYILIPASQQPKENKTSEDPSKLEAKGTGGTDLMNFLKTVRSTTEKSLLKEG
Put plainly: Hela cell-based IDO inhibitory activity test (IFNγ added). To be noted: Hela cells with IFNγ, 48 hours incubation, OD 480 nm. The procedure: 2. Hela Cell-Based IDO Inhibitory Activity Test Method
The first step: cell plating. Prepare complete medium and mix well. Cell lines that are in good growth state are selected. Remove the cell culture flask from the incubator and check the cell name, media type and cell generation number on the bottle. The medium was discarded, digested with trypsin, and after digestion, the cells were neutralized with serum-containing medium, and the cells were blown to cause the cells to fall off. Pipette the cell suspension into a centrifuge tube and centrifuge at a speed of 800-1000 for 3-5 minutes. Aspirate the cell supernatant from the centrifuge tube. Add an appropriate volume of medium to the tube and gently blister to resuspend the cells. Count using a Vi-Cell XR cytometer. Adjust the cell suspension to the appropriate concentration. The cell suspension was added to a white-well 96-well plate at 80 μl/well according to the schematic below. The second step: preparation and addition of the compound. Compounds were formulated in DMSO at 600 μM and the compounds were diluted in DMSO according to a multiple of the following table to give 6 concentration gradients of the compound. The 200× compound prepared in DMSO was formulated into a 10× dilution solution in proportion to the corresponding cell culture medium. After 24 hours of cell seeding, 10 μL of 10× corresponding compound dilution and 10 μL of 10×IFNγ were added to each well. Incubate for 48 hours in a 37° C. incubator. The third step: detection and analysis. Cell morphology was observed under an inverted microscope. 80 μL of the supernatant was added to a 3894 plate, 10 μL of 6.1 N trichloroacetic acid was added to each well, shaken for 2 minutes, and placed in a 50-degree incubator for 30 minutes. Centrifuge, 2500 rpm for 10 minutes.
Take 70 μL of the supernatant and transfer to a 3635 UV plate, add 70 μL of the reaction solution, and shake for 2 minutes to make the reaction uniform. Use EnSpire (PE) to detect data with an OD of 480 nm. The cell culture plate 3903 was allowed to stand at room temperature for 30 minutes. 100 μL/well of the cell activity detecting reagent was added to the culture plate. Mix on a shaker for 2 minutes to induce cell lysis. The 96-well plate was allowed to stand at room temperature for 10 minutes to stabilize the luminescence signal. Paste the white base film on the bottom of the plate and tested with Flexstation3 plate (the relevant setting is: Illumination, integration time 500 ms). Record the experimental results obtained from the analysis.
The IC50 value is expressed in the following manner: […]

T1 sequence (P14902 whole entry): as above

On to `CC(C(=O)Nc1ccc(Cl)cc1)C1=C[C@H]2C[C@@H](c3ccnc4ccc(F)cc34)C[C@H]2C1` (stereo partly shown) [Compound 38], for which the 50% inhibitory concentration (IC50) at hIDO1 was ≤ 10 nM; at IDO it was ≤ 5 nM.
`CC(C(=O)Nc1cccc(Cl)c1)[C@H]1C[C@H]2C[C@@H](c3ccnc4ccc(F)cc34)C[C@H]2C1` (stereo partly shown) [Compound 7]: the figures for the IC50 on hIDO1 and against IDO were 10 to 50 nM and 5 to 25 nM, respectively.
Consider `O=C(Nc1ccc(Cl)cn1)C1([C@@H]2C[C@H]3C[C@@H](c4ccnc5ccc(F)cc45)C[C@H]3C2)CC1` [Compound 92], for which the IC50 at hIDO1 was ≤ 10 nM; against IDO, ≤ 5 nM.
As to `C#Cc1ccc(NC(=O)C(C)[C@H]2C[C@H]3C[C@@H](c4ccnc5ccc(F)cc45)C[C@H]3C2)cc1` (stereo partly shown) [Compound 34], the half-maximal inhibitory concentration (IC50) is ≤ 10 nM at hIDO1 and ≤ 5 nM on IDO.
Turning to `C#Cc1ccc(NC(=O)C2([C@@H]3C[C@H]4C[C@@H](c5ccnc6ccc(F)cc56)C[C@H]4C3)CC2)cn1` [Compound 93], the IC50 was ≤ 10 nM on hIDO1 and ≤ 5 nM on IDO.
In the case of `CC(C(=O)Nc1ccc(Cl)nc1)[C@H]1C[C@H]2C[C@@H](c3ccnc4ccc(F)cc34)C[C@H]2C1` (stereo partly shown) [Compound 27], the IC50 is 10 to 50 nM on hIDO1 and ≤ 5 nM against IDO.
`CC(C(=O)Nc1ccc(C#N)cn1)[C@H]1C[C@H]2C[C@@H](c3ccnc4ccc(F)cc34)C[C@H]2C1` (stereo partly shown) [Compound 73]: the 50% inhibitory concentration (IC50) on hIDO1 is ≤ 10 nM; on IDO, ≤ 5 nM.
In the same order, the values of `O=C(C[C@@H]1C[C@H]2CC(c3ccnc4ccc(F)cc34)C[C@H]2C1)Nc1ccc(Cl)nc1` (stereo partly shown) [Compound 22] are 10 to 50 nM and 5 to 25 nM.
Turning to `C#Cc1ccc(NC(=O)C(C)(C)[C@H]2C[C@H]3C[C@@H](c4ccnc5ccc(F)cc45)C[C@H]3C2)nc1` [Compound 86], the half-inhibitory concentration (IC50) was ≤ 10 nM on hIDO1 and ≤ 5 nM on IDO.
In the case of `CC(C(=O)Nc1ccc(Cl)cc1)[C@@H]1C[C@]2(C)C[C@H](c3ccnc4ccc(F)cc34)C[C@]2(C)C1` (stereo partly shown) [Compound 40], the IC50 is 10 to 50 nM at hIDO1 and ≤ 5 nM against IDO.
As for `CC(C(=O)Nc1ccc(Cl)cc1)[C@H]1C[C@H]2C[C@@H](c3ccnc4ccc(F)cc34)C[C@H]2C1` (mixture of isomers) [Compound 1], the IC50 at hIDO1 was ≤ 10 nM; against IDO it was ≤ 5 nM.
Regarding `C#Cc1ccc(NC(=O)C2([C@H]3C[C@H]4C[C@@H](c5ccnc6ccc(F)cc56)C[C@H]4C3)CC2)nc1` [Compound 96], the concentration for half-maximal inhibition (IC50) on hIDO1 was ≤ 10 nM; at IDO, ≤ 5 nM.
In the same order, the values of `CC(C(=O)Nc1ccc(Cl)cn1)[C@H]1C[C@H]2CC(c3ccnc4ccc(F)cc34)C[C@H]2C1` (mixture of isomers) [Compound 26] are 10 to 50 nM and ≤ 5 nM.
For `O=C(Cc1ccc(CC(C(=O)Nc2ccc(Cl)cc2)[C@H]2CC[C@@H](c3ccnc4ccc(F)cc43)CC2)cc1)NO` (stereo partly shown) [Compound 10], in that order: > 100 nM and > 100 nM.
For `O=C(C[C@@H]1C[C@@H]2C[C@@H](c3ccnc4ccc(F)cc34)C(O)[C@@H]2C1)Nc1ccc(Cl)cc1` (stereo partly shown) [Compound 50], in that order: 10 to 50 nM and 5 to 25 nM.
Consider `C[C@H](C(=O)Nc1ccc(Cl)cc1)[C@H]1C[C@H]2C[C@@H](c3ccnc4ccc(F)cc34)C[C@H]2C1` (single isomer, unassigned) [Compound 1B], for which the results for the half-maximal inhibitory concentration (IC50) on hIDO1 and against IDO were ≤ 10 nM and ≤ 5 nM, respectively.
On to `O=C(C[C@@H]1C[C@@H]2C[C@H](c3ccnc4ccc(F)cc34)C[C@@H]2C1)NC1CCC(F)(F)CC1` [Compound 12], for which the results for the 50% inhibitory concentration (IC50) at hIDO1 and at IDO were > 100 nM and 25 to 100 nM, respectively.
Regarding `C[C@@H](C(=O)Nc1ccc(Cl)cc1)[C@H]1C[C@H]2C[C@@H](c3ccnc4ccc(F)cc34)C[C@H]2C1` (single isomer, unassigned) [Compound 1A], the results for the half-inhibitory concentration (IC50) on hIDO1 and against IDO were ≤ 10 nM and ≤ 5 nM, respectively.
`CC(C(=O)Nc1ccc(C#CC2CC2)cn1)[C@H]1C[C@H]2CC(c3ccnc4ccc(F)cc34)C[C@H]2C1` (stereo partly shown) [Compound 79]: the IC50 on hIDO1 was 10 to 50 nM; on IDO, > 100 nM.
With `O=C(C[C@@H]1C[C@@H]2CC(c3ccnc4ccc(F)cc34)=C[C@@H]2C1)Nc1ccc(Cl)cc1` [Compound 11], the IC50 is 10 to 50 nM at hIDO1 and ≤ 5 nM at IDO.
For `C#Cc1ccc(NC(=O)C[C@@H]2C[C@@H]3C[C@H](c4ccnc5ccc(F)cc45)C[C@@H]3C2)nc1` [Compound 67], the half-maximal inhibitory concentration (IC50) is ≤ 10 nM on hIDO1 and ≤ 5 nM against IDO.
For `CC(C)(C(=O)Nc1ccc(Cl)cn1)[C@H]1C[C@H]2C[C@@H](c3ccnc4ccc(F)cc34)C[C@H]2C1` [Compound 84], in that order: ≤ 10 nM and > 100 nM.
With `CC(C)(C(=O)Nc1ccc(C#N)cn1)[C@H]1C[C@H]2C[C@@H](c3ccnc4ccc(F)cc34)C[C@H]2C1` [Compound 88], the results for the 50% inhibitory concentration (IC50) on hIDO1 and against IDO were ≤ 10 nM and ≤ 5 nM, respectively.
As for `CC(C(=O)Nc1ccc(Cl)nc1)N1C[C@H]2C[C@@H](c3ccnc4ccc(F)cc34)C[C@H]2C1` (stereo partly shown) [Compound 45], the IC50 on hIDO1 lay in the range of 10 to 50 nM; on IDO, 5 to 25 nM.
For the compound `O=C(Nc1ccc(Cl)cn1)C1([C@H]2C[C@H]3C[C@@H](c4ccnc5ccc(F)cc45)C[C@H]3C2)CC1` [Compound 95], the IC50 on hIDO1 is ≤ 10 nM; against IDO, ≤ 5 nM.
On to `CC#Cc1ccc(NC(=O)C(C)(C)[C@H]2C[C@H]3C[C@@H](c4ccnc5ccc(F)cc45)C[C@H]3C2)nc1` [Compound 90], for which the values for the concentration for half-maximal inhibition (IC50) at hIDO1 and against IDO were ≤ 10 nM and ≤ 5 nM, respectively.
On to `O=C(C[C@@H]1C[C@@H]2C[C@H](c3ccnc4ccc(F)cc34)C[C@@H]2C1)Nc1ccc(Cl)cc1` [Compound 2], for which the half-inhibitory concentration (IC50) is 10 to 50 nM at hIDO1 and 5 to 25 nM against IDO.
As for `O=C(C[C@@H]1C[C@@H]2C[C@@H](Oc3ccnc4ccccc34)C[C@@H]2C1)Nc1ccc(Cl)cc1` [Compound 51], the IC50 at hIDO1 and against IDO was > 100 nM throughout.
As for `O=C(C[C@H]1C[C@@H]2C[C@H](c3ccnc4ccc(F)cc34)C[C@@H]2C1)Nc1ccc(Cl)cc1` [Compound 5], the concentration for half-maximal inhibition (IC50) on hIDO1 is ≤ 10 nM; against IDO it was ≤ 5 nM.

As usually defined, the IC50 is the midpoint of a concentration-inhibition curve.
